Measurements as given in patent US11780843B2, “Compounds active towards nuclear receptors” (NUEVOLUTION A/S, priority 2020, dated 2023).
Like-named read-outs stand apart in the source and are kept apart here.

Experiments:
[1] = target: T1, RORγ ligand-binding domain (Homo sapiens, UniProt P51449); test: RORγ Reporter Assay (Gal4); assay type: cell-based
T1 construct: Gal4 (galactose-responsive transcription factor); expressed in transfected cells; host or cells: HEK293, transient co-transfection
T1 sequence (P51449 269-508 limits assumed): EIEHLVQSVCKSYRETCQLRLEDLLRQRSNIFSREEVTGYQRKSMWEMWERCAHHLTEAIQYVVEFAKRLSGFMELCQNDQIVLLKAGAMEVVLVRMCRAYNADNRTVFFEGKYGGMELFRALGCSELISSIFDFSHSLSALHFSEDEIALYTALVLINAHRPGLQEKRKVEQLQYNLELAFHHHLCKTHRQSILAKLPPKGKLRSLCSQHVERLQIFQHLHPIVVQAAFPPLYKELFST
Procedure: The HEK293 cell line is co-transfected transiently with two plasmids, one with the RORγ ligand-binding domain fused to galactose-responsive transcription factor (Ga14), and the other with the luciferase reporter gene and Gal binding sites (UAS). This construction allows to determine the RORT activity in a cellular system through the measurement of luminescence.
A suspension of RORγ reporter cells was dispensed into plates and cultured 2 h at 37° C. and 5% CO2. Media formulation consisted in DMEM/F-12 medium (Gibco) supplemented with 10% heat inactivated FBS (Sigma-Aldrich), non-essential aminoacids (Sigma-Aldrich), 2 mM Glutamax (Gibco) and 100 U/mL penicillin (Sigma-Aldrich). Dose-response curves with compounds were prepared in 100% DMSO and further diluted 100-fold in culture medium. Compound solutions were added to the plate containing cells (final DMSO concentration of 0.1%) and incubated for 24 h at 37° C. and 5% CO2. Luciferase detection reagent was added to each well, and relative light units (RLUs) were quantified from each assay well using a plate reading luminometer.
Values of average RLU±S.D. were computed for all treatment sets, followed by the calculations of percent-reduction of RORT activity in response to respective test compound. The following formula was used: activity=100*[1−[[…]] where the theoretical minimum reduction (0% reduction). […] These calculations were performed in excel-fit software using X-204 model curve.

[2] = test system: IL-17A secretion in activated PBMCs; test: IL-17A secretion in activated PBMCs; assay type: cell-based; details: Homo sapiens, PBMC, 48 h, human PBMCs stimulated with CD3/CD28 Dynabeads for 48 h, absolute IC50
From the text: Heparin-treated whole blood from healthy human volunteers was supplied from Hospital de Sant Pau (Barcelona) under the approval of the local ethical review board for human studies (Hospital de Sant Pau, Barcelona, Spain). Human peripheral blood mononuclear cells (PBMCs) were isolated from healthy human volunteers by density gradient centrifugation using the Ficoll-Paque (GE Healthcare). PBMCs were suspended in cell culture medium which consisted on RPMI 1640 medium (Sigma-Aldrich) containing 10% heat inactivated fetal bovine serum (Sigma-Aldrich), 2 mM L-Glutamine (Gibco), 20 mM Hepes (Gibco) and 100 U/mL penicillin (Sigma-Aldrich). Cells were seeded in 384-well plate (DiscoverX), at 40,000 cells per well and cultured 2 h at 37° C. and 5% CO2.
Dose-response curves with compounds were prepared using a 5-fold serial dilution (10 concentrations) in 100% DMSO and further diluted 100-fold in culture medium. Compound solutions (5 μL) were added to the plate containing cells (final DMSO concentration of 0.1%) and incubated for 30 min. Then, cells were stimulated with CD3/CD28 Dynabeads (ThermoFisher, at a bead-to-cell ratio of 1:1) for 48 h at 37° C. and 5% CO2.
IL-17A levels in supernatant were determined by immunoassay using hIL17A QBeads (Intellicyt) and by fluorescence analysis in iQue flow cytometer following the manufacturer's instructions. Inhibition of IL-17A secretion was calculated using the following formula: inhibition=100*[1−[(x−mean basal condition)/(mean top condition—mean basal condition)]]. Activated DMSO-treated cells were used as top condition and activated GNE09461 (10 μM)-treated cells as basal condition.

[3] = HEK293 cells, luciferase reporter, 24 h incubation, absolute IC50, read-out: IC50

## CN(Cc1ccc(C(F)(F)F)cc1)c1ncnc2c1c(F)cn2C[C@@H]1CCN(CC(N)=O)C[C@H]1O (racemic) [Example P6-12, rac-2-((3R,4R)-4-((5-fluoro-4-(methyl(4-(trifluoromethyl)benzyl)amino)-7H-pyrrolo[2,3-d]pyrimidin-7-yl)methyl)-3-hydroxypiperidin-1-yl)acetamide]
[1]; [3]
  IC50: 5.2 nM
[2]
  IC50: 30 nM

## NC(=O)CN1CC[C@@H](Cn2ccc3c(N(Cc4ccc(C(F)(F)F)cc4)C4CC4)ncnc32)[C@H](O)C1 (racemic) [Example P6-13, rac-2-((3R,4R)-4-((4-(cyclopropyl(4-(trifluoromethyl)benzyl)amino)-7H-pyrrolo[2,3-d]pyrimidin-7-yl)methyl)-3-hydroxypiperidin-1-yl)acetamide]
[1]; [3]
  IC50: 0.9 nM
[2]
  IC50: 1.5 nM

## NC(=O)CN1CC[C@@H](Cn2cc(F)c3c(N(Cc4ccc(C(F)(F)F)cc4)C4CC4)ncnc32)[C@H](O)C1 (racemic) [Example P6-14, rac-2-((3R,4R)-4-((4-(cyclopropyl(4-(trifluoromethyl)benzyl)amino)-5-fluoro-7H-pyrrolo[2,3-d]pyrimidin-7-yl)methyl)-3-hydroxypiperidin-1-yl)acetamide]
[1]; [3]
  IC50: 1 nM
[2]
  IC50: 2.2 nM

## NC(=O)CN1CC[C@@H](Cn2cc(F)c3c(N(Cc4ccc(C(F)(F)F)nc4)C4CC4)ncnc32)[C@H](O)C1 (racemic) [Example P6-15, rac-2-((3R,4R)-4-((4-(cyclopropyl((6-(trifluoromethyl)pyridin-3-yl)methyl)amino)-5-fluoro-7H-pyrrolo[2,3-d]pyrimidin-7-yl)methyl)-3-hydroxypiperidin-1-yl)acetamide]
[1]; [3]
  IC50: 10 nM
[2]
  IC50: 18 nM

## NC(=O)CN1CC[C@@H](Cn2ccc3c(N(Cc4ccc(C(F)(F)F)nc4)C4CC4)ncnc32)[C@H](O)C1 (racemic) [Example P6-16, rac-2-((3R,4R)-4-((4-(cyclopropyl((6-(trifluoromethyl)pyridin-3-yl)methyl)amino)-7H-pyrrolo[2,3-d]pyrimidin-7-yl)methyl)-3-hydroxypiperidin-1-yl)acetamide]
[1]; [3]
  IC50: 5 nM
[2]
  IC50: 17 nM

## NC(=O)CN1CC[C@@H](Cn2cc(F)c3c(N(Cc4ccc(C(F)(F)F)cn4)C4CC4)ncnc32)[C@H](O)C1 (racemic) [Example P6-18, rac-2-((3R,4R)-4-((4-(cyclopropyl((5-(trifluoromethyl)pyridin-2-yl)methyl)amino)-5-fluoro-7H-pyrrolo[2,3-d]pyrimidin-7-yl)methyl)-3-hydroxypiperidin-1-yl)acetamide]
[1]; [3]
  IC50: 4.6 nM
[2]
  IC50: 14 nM

## CC(C)N(Cc1ccc(C(F)(F)F)cc1)c1ncnc2c1c(F)cn2C[C@@H]1CCN(CC(N)=O)C[C@H]1O (racemic) [Example P6-19, rac-2-((3R,4R)-4-((5-fluoro-4-(isopropyl(4-(trifluoromethyl)benzyl)amino)-7H-pyrrolo[2,3-d]pyrimidin-7-yl)methyl)-3-hydroxypiperidin-1-yl)acetamide]
[1]; [3]
  IC50: 9.8 nM
[2]
  IC50: 15 nM

## CCN(Cc1ccc(C(F)(F)F)cc1)c1ncnc2c1c(F)cn2C[C@@H]1CCN(CC(N)=O)C[C@H]1O (racemic) [Example P6-21, rac-2-((3R,4R)-4-((4-(ethyl(4-(trifluoromethyl)benzyl)amino)-5-fluoro-7H-pyrrolo[2,3-d]pyrimidin-7-yl)methyl)-3-hydroxypiperidin-1-yl)acetamide]
[1]; [3]
  IC50: 6.6 nM
[2]
  IC50: 11 nM

## NC(=O)CN1CC[C@@H](Cn2ccc3c(N(Cc4ccc(C(F)(F)F)cn4)C4CC4)ncnc32)[C@H](O)C1 (racemic) [Example P6-23, rac-2-((3R,4R)-4-((4-(cyclopropyl((5-(trifluoromethyl)pyridin-2-yl)methyl)amino)-7H-pyrrolo[2,3-d]pyrimidin-7-yl)methyl)-3-hydroxypiperidin-1-yl)acetamide]
[1]; [3]
  IC50: 5.3 nM
[2]
  IC50: 12 nM

## CCN(Cc1ccc(C(F)(F)F)cc1)c1ncnc2c1ccn2C[C@@H]1CCN(CC(N)=O)C[C@H]1O (racemic) [Example P6-24, rac-2-((3R,4R)-4-((4-(ethyl(4-(trifluoromethyl)benzyl)amino)-7H-pyrrolo[2,3-d]pyrimidin-7-yl)methyl)-3-hydroxypiperidin-1-yl)acetamide]
[1]; [3]
  IC50: 4.6 nM
[2]
  IC50: 22 nM

## CC(C)N(Cc1ccc(C(F)(F)F)cc1)c1ncnc2c1ccn2C[C@@H]1CCN(CC(N)=O)C[C@H]1O (racemic) [Example P6-25, rac-2-((3R,4R)-3-hydroxy-4-((4-(isopropyl(4-(trifluoromethyl)benzyl)amino)-7H-pyrrolo[2,3-d]pyrimidin-7-yl)methyl)piperidin-1-yl)acetamide]
[1]; [3]
  IC50: 15 nM
[2]
  IC50: 35 nM

## NC(=O)C(CO)N1CC[C@@H](Cn2ccc3c(N(Cc4ccc(C(F)(F)F)cc4)C4CC4)ncnc32)[C@H](O)C1 (mixture of isomers) [Example P6-37, rac-2-((3R,4R)-4-((4-(Cyclopropyl(4-(trifluoromethyl)benzyl)amino)-7H-pyrrolo[2,3-d]pyrimidin-7-yl)methyl)-3-hydroxypiperidin-1-yl)-3-hydroxypropanamide]
[1]; [3]
  IC50: 2 nM
[2]
  IC50: 7 nM

## NC(=O)CN1CC[C@@H](Cn2cnc3c(N(Cc4ccc(C(F)(F)F)cc4)C4CC4)ncnc32)[C@H](O)C1 (relative stereo) [P6-26″, rel-2-((3R,4R)-4-((6-(cyclopropyl(4-(trifluoromethyl)benzyl)amino)-9H-purin-9-yl)methyl)-3-hydroxypiperidin-1-yl)acetamide]
[1]; [3]
  IC50: 5.1 nM
[2]
  IC50: 21 nM

## CCN(Cc1ccc(C(F)(F)F)cn1)c1ncnc2c1ccn2C[C@@H]1CCN(CC(N)=O)C[C@H]1O (relative stereo) [P6-27″, rel-2-((3R,4R)-4-((4-(ethyl((5-(trifluoromethyl)pyridin-2-yl)methyl)amino)-7H-pyrrolo[2,3-d]pyrimidin-7-yl)methyl)-3-hydroxypiperidin-1-yl)acetamide]
[1]; [3]
  IC50: 12 nM
[2]
  IC50: 70 nM

## N#Cc1cn(CC2CCN(CC(N)=O)CC2)c2ncnc(N(Cc3ccc(C(F)(F)F)cc3)C3CC3)c12 [Example P6-07, 2-(4-((5-cyano-4-(cyclopropyl(4-(trifluoromethyl)benzyl)amino)-7H-pyrrolo[2,3-d]pyrimidin-7-yl)methyl)piperidin-1-yl)acetamide]
[1]; [3]
  IC50: 279 nM

## CC(C(N)=O)N1CCC(Cn2cnc3c(N(Cc4ccc(C(F)(F)F)cc4)C4CC4)ncnc32)CC1 (stereo not shown) [Example P6-08, 2-(4-((6-(cyclopropyl(4-(trifluoromethyl)benzyl)amino)-9H-purin-9-yl)methyl)piperidin-1-yl)propanamide]
[1]; [3]
  IC50: 231 nM

## CC(C)(C(N)=O)N1CCC(Cn2cnc3c(N(Cc4ccc(C(F)(F)F)cc4)C4CC4)ncnc32)CC1 [Example P6-09, 2-(4-((6-(cyclopropyl(4-(trifluoromethyl)benzyl)amino)-9H-purin-9-yl)methyl)piperidin-1-yl)-2-methylpropanamide]
[1]; [3]
  IC50: > 1000 nM

## NC(=O)CN1CCC(Cn2cc(F)c3c(N(Cc4ccc(C(F)(F)F)nc4)C4CC4)ncnc32)CC1 [Example P6-10, 2-(4-((4-(cyclopropyl((6-(trifluoromethyl)pyridin-3-yl)methyl)amino)-5-fluoro-7H-pyrrolo[2,3-d]pyrimidin-7-yl)methyl)piperidin-1-yl)acetamide]
[1]; [3]
  IC50: 93 nM

## NC(=O)CN1CCC(Cn2ccc3c(N4CCOC[C@@H]4c4ccc(C(F)(F)F)cn4)ncnc32)CC1 [Example Q4-2, (S)-2-(4-((4-(3-(5-(trifluoromethyl)pyridin-2-yl)morpholino)-7H-pyrrolo[2,3-d]pyrimidin-7-yl)methyl)piperidin-1-yl)acetamide]
[1]; [3]
  IC50: 330 nM
[1]; stated as a bound only (Tables 5 a, 6, 7), read-out: Gal4 assay IC50
  IC50: < 500 nM
